US20250387361A1, “METHODS OF ADMINISTERING GAMMA-HYDROXYBUTYRATE COMPOSITIONS WITH DIVALPROEX SODIUM” (Flamel Ireland Limited, priority 2020, published 2025)
Where two headings read alike, the source gives them in different places.

Assays:
[1] = test system: rat; details: 2-year study; cited from earlier work
[2] = test system: mouse; details: 2-year study; cited from earlier work
[3] = test system: plasma proteins; details: GHB concentrations 3 mcg/mL to 300 mcg/mL; cited from earlier work
[4] = cited from earlier work
[5] = cited from earlier work; remark: listed apart in the source
[6] = cited from earlier work; remark: listed apart in the source
[7] = test system: patients; details: cited from earlier work; for incidence of depression: controlled trial titrated from 4.5 g, placebo 1.7%
[8] = in vivo
Experimental: (§1) The study included a sequential, three period design with a single-dose administration of 6 g FT218 on Day 1 (Period 1), once daily 1250 mg divalproex sodium ER administration from Day 2-11 (Period 2), and FT218 and divalproex sodium ER co-administration on Day 12 (Period 3). All administrations were performed in the morning, 2 hours after the completion of a morning meal.
(§2) To compare the effect of FT218 on DVP, the concentration versus time curves for a 1250 mg dose of DVP administered alone (Day 11) and co-administered with FT218 (Day 12) were plotted together.

[9] = in vivo; remark: listed apart in the source
Experimental: as §1, with “evening,” for “morning,”, “dinner.” for “a morning meal.”
as §2

[10] = cited from earlier work; for apparent oral clearance: 25 mg/kg oral
[11] = test system: CYP3A; details: up to 3 mM (378 mcg/mL); cited from earlier work
[12] = biological target: T1, CYP1A2 (Homo sapiens, UniProt P05177); details: up to 3 mM (378 mcg/mL); cited from earlier work
T1 sequence (P05177 1-516): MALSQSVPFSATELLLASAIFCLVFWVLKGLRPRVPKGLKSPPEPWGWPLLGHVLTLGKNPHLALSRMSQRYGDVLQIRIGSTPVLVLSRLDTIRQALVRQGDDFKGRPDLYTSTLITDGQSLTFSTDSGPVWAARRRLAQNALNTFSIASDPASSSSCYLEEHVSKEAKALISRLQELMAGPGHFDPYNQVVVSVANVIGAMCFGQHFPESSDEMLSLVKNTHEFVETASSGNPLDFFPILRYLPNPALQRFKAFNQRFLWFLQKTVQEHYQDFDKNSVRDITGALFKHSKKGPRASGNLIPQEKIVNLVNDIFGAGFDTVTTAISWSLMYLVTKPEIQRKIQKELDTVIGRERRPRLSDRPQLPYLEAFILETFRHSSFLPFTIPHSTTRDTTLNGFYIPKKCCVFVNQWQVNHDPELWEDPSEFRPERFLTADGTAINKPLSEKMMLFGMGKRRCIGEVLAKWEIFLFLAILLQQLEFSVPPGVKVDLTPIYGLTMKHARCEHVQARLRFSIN

[13] = biological target: CYP2E1 (Homo sapiens, UniProt P05181); details: up to 3 mM (378 mcg/mL); cited from earlier work
[14] = test system: rat; details: in vivo; cited from earlier work
[15] = test system: rats; details: cited from earlier work
[16] = test system: rats; details: cited from earlier work; remark: listed apart in the source
[17] = test system: mammalian cells; details: in vitro; cited from earlier work
[18] = test system: pregnant rabbits; details: cited from earlier work
[19] = biological target: CYP2C9 (Homo sapiens, UniProt P11712); details: up to 3 mM (378 mcg/mL); cited from earlier work
[20] = biological target: CYP2D6 (Homo sapiens, UniProt P10635); details: up to 3 mM (378 mcg/mL); cited from earlier work
[21] = biological target: CYP2C19 (Homo sapiens, UniProt P33261); details: up to 3 mM (378 mcg/mL); cited from earlier work
[22] = test system: pregnant rats; details: cited from earlier work
[23] = test system: rats; details: cited from earlier work; remark: listed apart in the source
[24] = test system: male and female rats; details: cited from earlier work
[25] = test system: bacterial gene mutation; details: in vitro; cited from earlier work
[26] = 6 g per day as two 3 g doses, ibuprofen 800 mg/dose four times per day
[27] = 9 g per night, 50 patients with obstructive sleep apnea
[28] = elderly (65 years or older), another population
[29] = of 781 patients with narcolepsy
[30] = younger adults, another population

CYP2C9, sequence (P11712 whole entry): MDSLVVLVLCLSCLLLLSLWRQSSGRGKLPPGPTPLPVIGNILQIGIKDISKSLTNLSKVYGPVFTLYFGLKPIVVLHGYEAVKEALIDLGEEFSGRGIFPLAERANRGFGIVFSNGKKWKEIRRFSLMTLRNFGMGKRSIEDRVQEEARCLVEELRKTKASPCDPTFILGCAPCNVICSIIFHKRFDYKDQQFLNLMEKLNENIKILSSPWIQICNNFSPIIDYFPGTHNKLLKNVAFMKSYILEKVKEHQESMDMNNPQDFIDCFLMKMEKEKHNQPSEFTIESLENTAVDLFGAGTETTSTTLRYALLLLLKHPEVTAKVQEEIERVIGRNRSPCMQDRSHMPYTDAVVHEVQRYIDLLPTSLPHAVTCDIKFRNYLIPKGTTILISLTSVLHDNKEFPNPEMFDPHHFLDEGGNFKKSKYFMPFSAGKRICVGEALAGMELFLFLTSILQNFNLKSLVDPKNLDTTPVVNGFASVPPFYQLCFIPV
CYP2D6, sequence (P10635 whole entry): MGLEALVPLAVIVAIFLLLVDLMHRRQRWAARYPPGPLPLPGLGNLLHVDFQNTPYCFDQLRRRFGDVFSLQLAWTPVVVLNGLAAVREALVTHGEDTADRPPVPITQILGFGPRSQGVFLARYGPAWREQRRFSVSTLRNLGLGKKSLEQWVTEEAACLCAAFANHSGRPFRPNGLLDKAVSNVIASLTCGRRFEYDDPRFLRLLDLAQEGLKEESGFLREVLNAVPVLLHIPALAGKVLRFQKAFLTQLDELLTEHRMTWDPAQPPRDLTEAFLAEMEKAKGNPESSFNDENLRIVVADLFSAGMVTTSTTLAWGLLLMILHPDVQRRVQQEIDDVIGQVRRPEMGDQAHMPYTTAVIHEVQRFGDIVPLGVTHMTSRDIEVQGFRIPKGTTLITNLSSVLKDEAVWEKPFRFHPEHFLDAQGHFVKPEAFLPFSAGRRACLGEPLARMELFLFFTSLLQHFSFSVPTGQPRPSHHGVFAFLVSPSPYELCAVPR
CYP2E1, sequence (P05181 whole entry): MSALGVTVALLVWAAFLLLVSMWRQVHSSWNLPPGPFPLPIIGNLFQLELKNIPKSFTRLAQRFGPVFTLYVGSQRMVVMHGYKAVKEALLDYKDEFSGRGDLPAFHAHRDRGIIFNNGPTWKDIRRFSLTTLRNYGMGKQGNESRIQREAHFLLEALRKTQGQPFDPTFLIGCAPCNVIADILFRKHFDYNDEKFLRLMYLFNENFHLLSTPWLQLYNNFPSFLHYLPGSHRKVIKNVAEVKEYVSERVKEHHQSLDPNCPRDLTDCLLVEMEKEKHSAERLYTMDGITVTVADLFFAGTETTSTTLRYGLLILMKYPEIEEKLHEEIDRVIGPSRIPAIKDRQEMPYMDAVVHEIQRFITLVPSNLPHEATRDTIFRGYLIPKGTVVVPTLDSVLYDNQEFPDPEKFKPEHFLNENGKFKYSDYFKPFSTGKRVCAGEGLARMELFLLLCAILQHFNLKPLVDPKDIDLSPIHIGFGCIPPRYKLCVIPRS
CYP2C19, sequence (P33261 whole entry): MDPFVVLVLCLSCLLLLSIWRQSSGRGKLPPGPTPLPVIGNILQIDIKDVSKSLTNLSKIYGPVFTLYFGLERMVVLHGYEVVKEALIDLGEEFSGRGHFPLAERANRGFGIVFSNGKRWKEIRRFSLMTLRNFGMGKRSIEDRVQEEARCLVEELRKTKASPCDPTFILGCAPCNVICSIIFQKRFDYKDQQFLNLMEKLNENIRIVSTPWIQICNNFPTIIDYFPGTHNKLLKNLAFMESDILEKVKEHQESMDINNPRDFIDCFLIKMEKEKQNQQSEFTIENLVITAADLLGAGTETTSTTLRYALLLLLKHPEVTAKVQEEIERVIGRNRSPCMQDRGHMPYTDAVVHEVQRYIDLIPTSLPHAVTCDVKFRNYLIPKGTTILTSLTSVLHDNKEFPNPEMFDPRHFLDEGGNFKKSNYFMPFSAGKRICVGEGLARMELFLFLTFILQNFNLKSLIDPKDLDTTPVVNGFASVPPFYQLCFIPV

## O=C1CCCO1 [gamma-butyrolactone]
[1]
  carcinogenic activity: no clear evidence of carcinogenic activity
[2]
  carcinogenic activity: no clear evidence of carcinogenic activity

## O=C(O)CCCO [GHB, gamma-hydroxybutyrate]
[3]
  bound to plasma proteins: less than 1%
[4]; after oral administration of sodium oxybate
  excretion in human milk: excreted in human milk
[4]; in vivo
  apparent volume of distribution: 0.19 to 0.384 L/kg
  elimination half-life: 30 to 60 min
  fecal excretion: negligible
[4]; intravenous administration to mothers
  placental transfer: rapid
[4]; within 6 to 8 hours after dosing
  unchanged drug in human urine: less than 5%
[5]; in vivo
  change in pharmacokinetics of GHB on alteration of gastric pH with omeprazole: no significant change

## O=C([O-])CCCO.[Na+] [immediate-release sodium oxybate, sodium 4-hydroxybutyrate]
[6]; n=20, another studied population
  pharmacokinetic characteristics of GHB in younger (48 to 64 years) vs older (65 to 75 years) adults: consistent
[5]; 6 g per day as two 3 g doses four hours apart, diclofenac 50 mg/dose twice per day
  systemic exposure to GHB on co-administration with diclofenac: no significant changes
[5]; 6 g per day as two 3 g doses, diclofenac 50 mg/dose twice per day
  effect of co-administration on pharmacokinetics of diclofenac: did not appear to affect
[5]; [26]
  effect of co-administration on pharmacokinetics of ibuprofen: did not affect
  systemic exposure to GHB (plasma Cmax and AUC) on co-administration with ibuprofen: comparable systemic exposure
[5]; healthy adults
  pharmacokinetic interactions with protriptyline hydrochloride, zolpidem tartrate, and modafinil: no pharmacokinetic interactions
  pharmacokinetic or pharmacodynamic interactions with duloxetine HCl: no pharmacokinetic or clinically significant pharmacodynamic interactions
[5]; in vivo
  pharmacokinetic interactions with the alcohol dehydrogenase inhibitor fomepizole: no pharmacokinetic interactions
[7]; 4.5 g per night
  incidence of depression: 1.5%
[7]; 6 g per night
  incidence of depression: 3.2%
[7]; 9 g per night, 50 patients with obstructive sleep apnea (three patients)
  patients with clinically significant oxygen desaturation (≤55%): 6%
[7]; [27]
  number of central apneas: significant increase
  severity of sleep-disordered breathing: did not increase the severity of sleep-disordered breathing
[7]; 9 g per night, controlled fixed-dose trial
  patients experiencing confusion: 17%
[7]; 9 g per night
  incidence of depression: 3.6%
[7]; 40 patients with baseline apnea/hypopnea index 16 to 67 events per hour, 4.5 g to 9 g per night
  clinically significant worsening of respiratory function: None of the 40 patients
[7]; 128 patients with narcolepsy
  profound CNS depression: two subjects had profound CNS depression
[7]; adult patients, clinical trials
  CNS depression at recommended doses: obtundation and clinically significant respiratory depression occurred
[7]; clinical trial in patients with narcolepsy
  sleepwalking with potential injury or significant injury: Five instances
[7]; controlled trial, fixed doses 3 g, 6 g or 9 g per night, at the 3 g per night dose
  events of depression: a single event of depression
[7]; doses up to 9 g per night, 21 patients with narcolepsy
  dose-related changes in oxygen saturation: no dose-related changes in oxygen saturation
[7]; [28]
  discontinuations of treatment due to adverse reactions: 21%
  frequency of headaches: 39%
[7]; four of 781 patients
  patients discontinuing because of depression: < 1%
[7]; human, in vivo
  patients discontinuing due to sleepwalking: < 1%
  patients who discontinued because of confusion: Less than 1%
[7]; [29]
  patients reporting adverse reactions of depression: 7%
  patients who experienced confusion: 3%
[7]; of 781 patients with narcolepsy, controlled and long-term open-label studies
  patients reporting sleepwalking: 6%
[7]; of 874 patients, another population
  patients in whom anxiety occurred: 5.8%
[7]; patients with narcolepsy (n=781)
  suicides and attempted suicides: two suicides and two attempted suicides
[7]; patients with preexisting moderate-to-severe sleep apnea
  significant worsening of apnea/hypopnea index: One of four patients
[7]; trial titrated from 4.5 g per night, at the 9 g per night dose
  events of confusion: a single event of confusion
[7]; [30]
  discontinuations of treatment due to adverse reactions: 19%
  frequency of headaches: 19%

## CCCC(CCC)C(=O)O [divalproex sodium ER, divalproex sodium]
[8]
  90% CIs of ratio of Cmax and AUC0-24 of valproic acid vs bioequivalence range (80.00%-125.00%): contained within the standard bioequivalence range
[9]; human
  decrease of valproic acid Cmax with FT218: approximately 5%
  valproic acid AUC0-24 T/R ratio [90% CI], Day 12 (with FT218) vs Day 11 (without): 97.28 [94.59-100.04]
  valproic acid Cmax T/R ratio [90% CI], Day 12 (with FT218) vs Day 11 (without): 94.82 [91.03-98.76]
[9]
  90% CIs of ratio of Cmax and AUC0-24 of valproic acid vs bioequivalence range (80.00%-125.00%): contained within the standard bioequivalence range
  tmax for valproic acid, with vs without FT218: comparable

## O=C([O-])CCCO.[Na+] [sodium oxybate, sodium 4-hydroxybutyrate]
[10]; Child's Class A cirrhotic patients
  apparent oral clearance: 4.5 mL/min/kg
[10]; Child's Class C cirrhotic patients
  apparent oral clearance: 4.1 mL/min/kg
[10]; Class C patients
  mean t1/2: 59 min
[10]; healthy adults
  apparent oral clearance: 9.1 mL/min/kg
[10]; single oral dose of 25 mg/kg
  AUC values in cirrhotic patients vs normal hepatic function: doubled
[11]
  inhibition of CYP3A activity: does not significantly inhibit
[6]; 18 female and 18 male healthy adults, 4.5 g oral dose
  gender differences in pharmacokinetics of GHB: no gender differences were detected
[12]
  inhibition of CYP1A2 activity: does not significantly inhibit
[13]
  inhibition of CYP2E1 activity: does not significantly inhibit
[14]
  micronucleus: negative
[15]; 1,000 mg/kg/day
  plasma exposure (AUC) at the highest dose tested relative to humans at MRHD of 9 g per night: 2 times
[15]; oral doses up to 1,000 mg/kg/day for 83 (males) or 104 (females) weeks
  tumors: no increase in tumors
[16]; at the highest dose tested (900 mg/kg/day)
  growth and maturation findings: Reduced body weight gain in males and females and delayed sexual maturation in males
[16]; oral 0, 100, 300, or 900 mg/kg/day, postnatal days 21 through 90
  mortality: mortality was observed at the two highest doses tested
[17]
  chromosomal aberration: negative
[18]; 1,200 mg/kg/day
  highest dose tested relative to MRHD of 9 g per night (mg/m^2 basis): ~3 times
[18]; oral 300, 600, or 1,200 mg/kg/day throughout organogenesis
  developmental toxicity: no clear evidence of developmental toxicity
[19]
  inhibition of CYP2C9 activity: does not significantly inhibit
[20]
  inhibition of CYP2D6 activity: does not significantly inhibit
[21]
  inhibition of CYP2C19 activity: does not significantly inhibit
[22]; 1,000 mg/kg/day
  highest dose tested relative to MRHD of 9 g per night (mg/m^2 basis): approximately 1 times
[22]; oral 150, 350, or 1,000 mg/kg/day throughout organogenesis
  developmental toxicity: no clear evidence of developmental toxicity
[23]; oral 150, 350, or 1,000 mg/kg/day, at the highest dose tested
  pre- and postnatal findings: increased stillbirths and decreased offspring postnatal viability and body weight gain
[23]; rat, in vivo
  no-effect dose for pre- and postnatal developmental toxicity relative to MRHD (mg/m^2 basis): less than the MRHD
[24]; 1,000 mg/kg/day
  highest dose tested relative to MRHD on a mg/m^2 basis: approximately equal to the MRHD
[24]; oral 150, 350, or 1,000 mg/kg/day prior to and throughout mating, females through early gestation
  effects on fertility: no adverse effects on fertility
[25]
  bacterial gene mutation: negative
